Experimental data: patent US7179825B2, “Retinoic acid mimetic anilides” (Janssen Pharmaceutica N.V., priority 1997, dated 2007)

Experiments:
[1] = system: metabolism of retinoic acid in human breast cancer cells; experiment: Inhibition of retinoic acid (RA) metabolism (Example C.1); format: cell-based; conditions: MCF-7 human breast cancer cells, 3H-RA as substrate; concentration needed to reduce the amount of metabolites to 50% of the control
Method in brief: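 MCF-7 cells, pre-stimulated with RA the day before, incubated with ³H-RA substrate and test compound in 1% DMSO. Polar ³H-metabolites separated from unmetabolized RA and counted by scintillation. IC50 is the concentration cutting metabolite formation to 50% of control, with blank run alongside.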

Ovariectomized rats = experiment: Vaginal keratinization test on ovariectomized rats (Example C.2); format: in vivo; conditions: estradiol undecylate induced keratinization, per os once daily on days 1-3, active dose = 50% of rats show complete suppression
Method in brief: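 Ovariectomized rats given s.c. estradiol undecylate (100 μg per 100 g body weight in sesame oil), then oral compound once daily on days 1-3 (vehicle PEG 200). Vaginas assessed histologically one day after last dose; lowest active dose (mg/kg) is the dose giving complete keratinization suppression in 50% of rats.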

Row | IC50 [1] | SMILES | LAD (lowest active dose) (Ovariectomized rats)
1 | 0.0567 nM | COc1ccc(CC(=O)Nc2ccc(C(C(C)CN3CCCCC3)n3ccnc3)cc2)cc1OC (single isomer, unassigned) [Compound 389] | >2.50 mg/kg
2 | 0.955 nM | CCC(C(c1ccc(NC(=O)Cc2ccc(OC)c(OC)c2)cc1)n1ccnc1)N(C)C (single isomer, unassigned) [Compound 393] | 5.00 mg/kg
3 | 3.68 nM | COCC(C)C(c1ccc(NC(=O)Cc2ccc(OC)c(OC)c2)cc1)n1ccnc1 (single isomer, unassigned) [Compound 405] | 5.00 mg/kg
4 | 3.99 nM | COc1ccc(CC(=O)Nc2ccc(C(C(C)N3CCN(C)CC3)n3ccnc3)cc2)cc1OC.O (single isomer, unassigned) [Compound 412] | >2.50 mg/kg
5 | 5.27 nM | CCCN(C)C(C)C(c1ccc(NC(=O)Cc2ccc(OC)c(OC)c2)cc1)n1ccnc1 (single isomer, unassigned) [Compound 413] | 5.00 mg/kg
6 | 0.367 nM | CCN(C)C(C)C(c1ccc(NC(=O)Cc2ccc(OC)c(OC)c2)cc1)n1ccnc1 (single isomer, unassigned) [Compound 416] | >5.00 mg/kg
7 | 3.22 nM | C/C(=C\c1ccccc1)C(=O)Nc1ccc(C(C(C)C)n2ccnc2)cc1 (single isomer, unassigned) [Compound 458] | 5.00 mg/kg
8 | 17.7 nM | CC(=Cc1ccccc1)C(=O)Nc1ccc(C(C(C)C)n2ccnc2)cc1 (single isomer, unassigned) [Compound 459] | 20.00 mg/kg
9 | 1.95 nM | CCCC(C)C(c1ccc(NC(=O)/C(C)=C/c2ccccc2)cc1)n1ccnc1 (single isomer, unassigned) [Compound 482] | 10.00 mg/kg
10 | 19.8 nM | CC(=Cc1ccccc1)C(=O)Nc1ccc(C(C(C)Sc2ccccc2)n2ccnc2)cc1 (single isomer, unassigned) [Compound 483] | >5.00 mg/kg
11 | 3.43 nM | CC(=Cc1ccccc1)C(=O)Nc1ccc(C(C(C)Sc2ccccc2)n2ccnc2)cc1 (single isomer, unassigned) [Compound 484] | >5.00 mg/kg
12 | > 100 nM | CC(=Cc1ccccc1)C(=O)Nc1ccc(C(C(C)c2ccccc2)n2ccnc2)cc1 (single isomer, unassigned) [Compound 489] | 2.50 mg/kg
13 | > 100 nM | C/C(=C\c1ccccc1)C(=O)Nc1ccc(C(C(C)c2ccccc2)n2ccnc2)cc1 (single isomer, unassigned) [Compound 490] | 2.50 mg/kg
14 | 4.07 nM | CCCCCC(CC)C(c1ccc(NC(=O)C(C)=Cc2ccccc2)cc1)n1ccnc1 (single isomer, unassigned) [Compound 492] | >2.50 mg/kg
15 | 1.32 nM | CCC(C(c1ccc(NC(C)=O)cc1)n1ccnc1)N(C)C (single isomer, unassigned) [Compound 558] | >5.00 mg/kg
16 | 8.02 nM | CCC(C(c1ccc(NC(C)=O)cc1)n1cncn1)N(C)C (single isomer, unassigned) [Compound 645] | >5.00 mg/kg
17 | 3.07 nM | CCC(C(c1ccc(NC(=O)Cc2ccc(OC)c(OC)c2)cc1)n1cncn1)N(C)C (single isomer, unassigned) [Compound 646] | 5.00 mg/kg
18 | 7.32 nM | CCN(CC)C(C)C(c1ccc(NC(=O)Cc2ccc(OC)c(OC)c2)cc1)n1cncn1 (single isomer, unassigned) [Compound 649] | 5.00 mg/kg
19 | 1.26 nM | CCC(CC)C(c1ccc(NC(=O)Cc2ccc(C)c(OC)c2)cc1)n1cncn1 (single isomer, unassigned) [Compound 782] | 2.50 mg/kg
20 | 39.8 nM | CCC(CC)C(c1ccc(NC(=O)Cc2ccc(C)c(OC)c2)cc1)n1cncn1 (single isomer, unassigned) [Compound 783] | 5.00 mg/kg

Continued, compound first:

Row | SMILES | IC50 [1] | LAD (lowest active dose) (Ovariectomized rats)
21 | CC(C)Oc1ccc(CC(=O)Nc2ccc(C(C(C)N(C)C)n3ccnc3)cc2)cc1 (single isomer, unassigned) [Compound 316] | 4.06 nM | 5.00 mg/kg
22 | CC(C(c1ccc(NC(=O)Cc2ccc3c(c2)OCO3)cc1)n1cncn1)N(C)C (single isomer, unassigned) [Compound 330] | 1.82 nM | 2.50 mg/kg
23 | C/C(=C\c1ccccc1)C(=O)Nc1ccc(C(C(C)N(C)C)n2cncn2)cc1 (single isomer, unassigned) [Compound 332] | 1.5 nM | >2.50 mg/kg
24 | CC(C(c1ccc(NC(=O)Cc2ccc3c(c2)OCCO3)cc1)n1ccnc1)N(C)C (single isomer, unassigned) [Compound 339] | 1.23 nM | >2.50 mg/kg
25 | CCOc1ccc(CCC(=O)Nc2ccc(C(C(C)N(C)C)n3ccnc3)cc2)cc1 (single isomer, unassigned) [Compound 346] | 2.04 nM | >5.00 mg/kg
26 | COc1ccccc1OCC(=O)Nc1ccc(C(C(C)N(C)C)n2ccnc2)cc1 (single isomer, unassigned) [Compound 351] | 5.69 nM | >5.00 mg/kg
27 | CC(C(c1ccc(NC(=O)CN2CCN(C)CC2)cc1)n1ccnc1)N(C)C (single isomer, unassigned) [Compound 352] | 0.257 nM | >5.00 mg/kg
28 | CC(C(c1ccc(NC(=O)CN2CCN(C)CC2)cc1)n1ccnc1)N(C)C (single isomer, unassigned) [Compound 353] | 1.97 nM | >5.00 mg/kg
29 | CC(C(c1ccc(NC(=O)Cc2ccc(Cl)cc2)cc1)n1ccnc1)N1CCCCC1 (single isomer, unassigned) [Compound 366] | 3.05 nM | >10.00 mg/kg
30 | CC(C(c1ccc(NC(=O)Cc2ccc(Cl)cc2)cc1)n1ccnc1)N(C)C (single isomer, unassigned) [Compound 367] | 1.25 nM | 2.50 mg/kg
31 | CC(C(c1ccc(NC(=O)Cc2ccc(Cl)cc2)cc1)n1ccnc1)N(C)C (single isomer, unassigned) [Compound 368] | 0.583 nM | 2.50 mg/kg
32 | CC(Sc1ccccc1)C(c1ccc(NC(=O)Cc2ccc(Cl)cc2)cc1)n1ccnc1 (single isomer, unassigned) [Compound 369] | 82.2 nM | 10.00 mg/kg
33 | CC(Oc1ccccc1)C(c1ccc(NC(=O)Cc2ccc(Cl)cc2)cc1)n1ccnc1 (single isomer, unassigned) [Compound 370] | 83.4 nM | >10.00 mg/kg
34 | CC(Sc1ccccc1)C(c1ccc(NC(=O)Cc2ccc(Cl)cc2)cc1)n1ccnc1 (single isomer, unassigned) [Compound 376] | < 0.1 nM | 2.50 mg/kg
35 | CCN(CC)C(C)C(c1ccc(NC(=O)Cc2ccc(OC)c(OC)c2)cc1)n1ccnc1 (single isomer, unassigned) [Compound 383] | 0.729 nM | >2.50 mg/kg
36 | CCCCCC(C)C(c1ccc(NC(=O)Cc2ccc(OC)c(OC)c2)cc1)n1ccnc1 (single isomer, unassigned) [Compound 385] | 6.75 nM | >2.50 mg/kg
37 | CCC(CC)C(c1ccc(NC(=O)C(O)c2ccc(Cl)cc2)cc1)n1cncn1 (stereo not shown) [Compound 4] | 2.11 nM | 0.60 mg/kg
38 | CCC(CC)C(c1ccc(NC(=O)CCCc2ccc(OC)c(OC)c2)cc1)n1cncn1 (stereo not shown) [Compound 8] | 0.0937 nM | >2.50 mg/kg
39 | CCC(CC)C(c1ccc(NC(=O)Cc2ccc3nc(N)sc3c2)cc1)n1cncn1 (stereo not shown) [Compound 13] | 0.0357 nM | >2.50 mg/kg
40 | CCC(CC)C(c1ccc(NC(=O)C2CCc3ccccc3O2)cc1)n1ccnc1 (stereo not shown) [Compound 29] | 8.12 nM | 5.00 mg/kg
41 | CCC(CC)C(c1ccc(NC(=O)C2Oc3ccccc3O2)cc1)n1ccnc1 (stereo not shown) [Compound 34] | 1.03 nM | 2.50 mg/kg
42 | CCC(CC)C(c1ccc(NC(=O)Cc2ccc(-c3ccccc3)cc2)cc1)n1ccnc1 (stereo not shown) [Compound 41] | 1.98 nM | 2.50 mg/kg
43 | CCC(CC)C(c1ccc(NC(=O)C(SC)c2ccccc2)cc1)n1ccnc1 (stereo not shown) [Compound 50] | 7.44 nM | 2.50 mg/kg
44 | CCC(CC)C(c1ccc(NC(=O)C(O)c2ccc(OC)c(OC)c2)cc1)n1ccnc1 (stereo not shown) [Compound 56] | 0.0251 nM | >5.00 mg/kg
45 | CCC(CC)C(c1ccc(NC(=O)Cc2ccc(OCc3ccncc3)cc2)cc1)n1ccnc1 (stereo not shown) [Compound 127] | 0.0285 nM | >2.50 mg/kg
46 | CCOc1cc(CC(=O)Nc2ccc(C(C(CC)CC)n3ccnc3)cc2)ccc1OCc1ccccc1 (stereo not shown) [Compound 128] | 0.0181 nM | 5.00 mg/kg
47 | CCC(CC)C(c1ccc(NC(=O)Cc2ccc(O)cc2C)cc1)n1ccnc1 (stereo not shown) [Compound 129] | 0.0236 nM | 2.50 mg/kg
48 | CCC(CC)C(c1ccc(NC(=O)Cc2ccc(OCc3cccnc3)cc2)cc1)n1ccnc1 (stereo not shown) [Compound 130] | 0.0109 nM | 5.00 mg/kg
49 | CC(C)C(c1ccc(NC(=O)Cc2ccc(Cl)cc2)cc1)n1cncn1 (stereo not shown) [Compound 131] | 4.1 nM | 5.00 mg/kg
50 | CC(C)C(c1ccc(NC(=O)Cc2ccc(F)cc2)cc1)n1cncn1 (stereo not shown) [Compound 132] | 4.49 nM | 5.00 mg/kg
